Reference: patent US20170035824A1, “USAGE OF OBLONGIFOLIN C, A NATURAL COMPOUND FROM GARCINIA YUNNANENSIS HU, ON TREATING CANCER AS METASTASIS INHIBITOR AND AUTOPHAGIC FLUX INHIBITOR” (Hong Kong Baptist University, priority 2013, published 2017)
Where a name gives a salt, the structure may show the parent alone.

Assays:
[1] = literature background; cited from earlier work
HeLa cells xenograft = experiment: Anti-cancer activity in vivo, cervical cancer xenograft; design: species or system BALB/c nude mice; details: for tumor size versus vehicle treated mice: HeLa xenograft, intratumoral once every 2 days, seven injections, OC 12 μg, Etopside 4 μg
Description: Four weeks old nude mice were engrafted with HeLa cells and observed until tumors reached ˜100 mm^3. Tumor-bearing mice were then treated vehicle, OC (12 μg) or Etopside (4 μg) […] by intratumoral once every 2 days for a total of seven injections. Mice were killed and tumors resected and weighed 2 days after the final injection.
Four-week-old BALB/c nude mice were purchased from the Experimental Animal
Center of Chinese Academy of Science (Shanghai, China) and kept in pathogen free environment at Experimental Animal Center in Shanghai University of Traditional Chinese Medicine. The mice have an average weight of 20 g. Approximately 2×10^6 HeLa cells were injected into the left and right sides of the animals. Two weeks later, 15 mice bearing tumors around 100 mm^3 in volume were randomly divided into vehicle control, etoposide (positive control) and oblongifolin C-treated groups. The mice were administered via intratumoral injection at the dose of 4 μg etopside or 12 μg OC in 200 μl solvent (0.05% DMSO, 0.05% Tween-80 in PBS) once every two days for two weeks. The tumor size was measured over a period of two weeks.

ECA109 cells [2] = experiment: Wound healing assay; assay type: cell-based, human; details: ECA109, 24 hours, FIG. 2
Description: (§1) Human esophageal cancer cell line ECA109 were maintained in RPMI1640 (Gibco/Invitrogen) supplemented with 10% fetal bovine serum (Invitrogen), 100 U/ml penicillin-streptomycin (Gibco/ Invitrogen, 15140-122), within a humidified atmosphere containing 5% CO2 at 37° C.
ECA109 cells were seeded on 12-well plates at a density of 1×10^5 cells/well. After the cells reached sub-confluence, the mono-layer cells were wounded by scraping off the cells and then grown in medium for 24 hours. The migrated distance of cells was monitored and imaged under a microscope.

ECA109 cells [3] = experiment: Transwell assay (cell migration); assay type: cell-based, human; details: ECA109, 24 hours, FIG. 3
Description: as §1
(§2) Cell migration was also determined using a transwell (Corning) with pore size of 8 μm. 5×10^4 cells that were seeded in serum-free medium in the upper chamber, while medium containing 10% FBS in the lower chamber. After incubating for 24 hours at 37° C., cells in the upper chamber were carefully removed with a cotton swab and the cells that had traversed to reverse face of the membrane were fixed in methanol, stained with Giemsa, and counted.

ECA109 cells [4] = experiment: Anti-invasion assay (Matrigel assay); assay type: cell-based, human; details: ECA109, 72 hr, FIG. 4
Description: as §1
as §2, with “Cell invasion” for “Cell migration”, “was” for “was also”, “using Matrigel (BD) coated” for “using a”, “for 72 hr” for “for 24 hours”

HeLa-LC3-GFP cells = experiment: GFP-LC3 translocation and quantitative analyses; assay type: cell-based; details: OC 5, 10 and 20 μM, 24 hours, FIG. 5 and 6
Text: MEF, HeLa, CNE, HCT116, MCF7 and HepG2 cells were transfected with pEGFP-LC3 plasmid using lipofectamine 2000 (Invitrogen, 11668-019). […] Image acquisition was done using an Olympus FV1000 confocal microscope. The number of GFP-LC3 dots was counted from at least 150 cells from randomly placed positions within each sample.

[5] = system: human breast cancer cells (MCF7); experiment: GFP-LC3 translocation; assay type: cell-based; details: MCF7, 10 μM, 24 hours, FIG. 7
Description: (§3) MEF, HeLa, CNE, HCT116, MCF7 and HepG2 cells were transfected with pEGFP-LC3 plasmid using lipofectamine 2000 (Invitrogen, 11668-019). One day after transfection, cells were treated with 10 μM Oblongifolin C for 24 hours prior to fixation. Image acquisition was done using an Olympus FV1000 confocal microscope. The number of GFP-LC3 dots was counted from at least 150 cells from randomly placed positions within each sample.

[6] = system: human colon cancer cells (HCT116); experiment: GFP-LC3 translocation; assay type: cell-based; details: HCT116, 10 μM, 24 hours, FIG. 7
Description: as §3

[7] = system: human hepatocytes (HepG2); experiment: GFP-LC3 translocation; assay type: cell-based; details: HepG2, 10 μM, 24 hours, FIG. 7
Description: as §3

[8] = system: human nasopharyngeal cancer cells (CNE); experiment: GFP-LC3 translocation; assay type: cell-based; details: 10 μM, 24 hours, FIG. 7
Description: as §3

[9] = system: mouse embryonic fibroblast cells (MEF); experiment: GFP-LC3 translocation; assay type: cell-based; details: 10 μM, 24 hours, FIG. 7
Description: as §3

HeLa cells [10] = experiment: Western blot for endogenous LC3 / SQSTM1; assay type: cell-based
Description: (§4) GAPDH was used as a loading control. An image J densitometric analysis of the LC3-II/GAPDH ratio from LC3 immunoblots was shown.
(§5) Samples were analyzed by western blotting for endogenous SQSTM1 and GAPDH. An image J densitometric analysis of the SQSTM1/GAPDH ratio from immunoblots was shown.
(§6) Cells were lysed in ice-cold whole cell extract buffer (50 mM pH8.0 Tris-HCl, 4M urea and 1% TritonX-100), supplemented with complete protease inhibitor mixture (Roche Diagnostics, 04693132001). Cell extracts were resolved by SDS-PAGE gel electrophoresis and transferred to a nitrocellulose membrane. After blocking with 5% non-fat milk in Tris-buffered saline containing 0.2% Tween-20, the membranes were probed with the following antibodies: LC3B (sigma, L7543), SQSTM1/p62 (MBL, PM045), GAPDH (Proteintech, 10494-1-AP), CASP3 (Cell signaling, #9962). Following incubation with horseradish peroxidase coupled secondary anti-mouse (KPL, 074-1806) or anti-rabbit antibodies (KPL, 474-1506), protein bands were visualized using ECL Blotting Detection Reagents (KPL, 54-61-00).

MEF cells = experiment: Western blot for endogenous LC3 / SQSTM1; assay type: cell-based, mouse
Description: as §4, §5, §6

[11] = system: HeLa cells stably expressing GFP-LC3; experiment: Live cell imaging and colocalization analysis (GFP-LC3 / LysoTracker Red); assay type: cell-based; details: OC 15 μM or HCQ 50 μM, 8 hours, FIG. 11
Description: Live cell images of GFP-LC3 and LysoTracker Red were taken using Olympus confocal microscope. The enlarged images show the colocalization of two signals.
(§7) For lysotracker staining, HeLa or MEF cells grown on coverslips were stained with 50 nM Lysotracker Red DND-99 (Molecular Probes, Invitrogen, L7528) in pre-warmed medium for 20 min at 37° C. All of the samples were examined under an Olympus FV1000 confocal microscope (Olympus) equipped with a 63×oil immersion objective. The confocal images were acquired using FV10-ASW 2.0 software. Calculation of Pearson's correlation coefficient (PCC) was applied to quantify colocalization. PCC was calculated by FV10-ASW 2.0 software between the stack of images from two channels.

MEF = experiment: as above; assay type: cell-based, mouse; details: OC 15 μM, 8 hours, FIG. 12
Description: The colocalization of GFP-LC3 and LysoTracker Red were analyzed by confocal microscopy. The enlarged images show the colocalization of two signals.
as §7

HeLa cells [12] = experiment: Flow cytometry (propidium iodide), complete vs nutrient-deprived medium; assay type: cell-based; details: OC 5 μM, EBSS vs DMEM, 24 hours, FIG. 13
Description: (§8) The cells were fixed and stained with propidium iodide (PI).
(§9) HeLa, HCT116, CNE, MCF7, MDA-MB-231, HepG2 and MEFs were maintained in Dulbecco's modified Eagle's medium (Gibco/Invitrogen, 12800-017) supplemented with 10% fetal bovine serum 100U/m1 penicillin-streptomycin (Gibco/ Invitrogen, 15140-122) at 37° C. in a humidified 5% CO2 incubator. For nutrient starvation, HeLa or CNE cells cultured in DMEM were washed three times with PBS, then cultured in Earle's Balanced Salt Solution (EBSS, Sigma, E6132) for indicated time point.
(§10) Cells were treated with Oblongifolin C then cultured in complete (DMEM with serum) or nutrient deprived medium (EBSS) for 24 hours. The cells were fixed in 70% ethanol in PBS overnight. For cell cycle distribution, cells were counterstained with propidium iodide and analyzed for DNA content by use of a BD Influx™ flow cytometer.

CNE cells = experiment: as above; assay type: cell-based, human; details: OC 5 μM, EBSS vs DMEM, 24 hours, FIG. 13
Description: as §8, §9, §10

HeLa cells [13] = experiment: Western blot for cleaved Caspase 3 in DMEM or EBSS medium; assay type: cell-based; details: DMEM and EBSS, 24 hours, FIG. 14
Description: Samples were analyzed by western blotting for cleaved Caspase 3, LC3 and SQSTM1. GAPDH was used as a loading control.
as §6, §10

[14] = system: lysosomal proteolytic activity; experiment: Lysosomal proteolytic activity / autophagic flux; assay type: cell-based
[15] = system: human colorectal cancer cell lines; details: previous studies (Feng et al. 2012; Huang et al. 2009); cited from earlier work

In the case of CC(C)=CCC[C@]1(C)C=Cc2c(O)c3c(c(CC=C(C)C)c2O1)O[C@]12C(=C[C@@H]4C[C@H]1C(C)(C)O[C@@]2(C/C=C(/C)C(=O)O)C4=O)C3=O [GA, gambogic acid], the toxicity [1] is given as “induces toxicity to the liver and kidney”.

In the case of COc1cc([C@@H]2c3cc4c(cc3[C@@H](O[C@@H]3O[C@@H]5CO[C@@H](C)O[C@H]5[C@H](O)[C@H]3O)[C@H]3COC(=O)[C@H]23)OCO4)cc(OC)c1O [Etop, etoposide, reference compound], the “tumor size versus vehicle treated mice” value (HeLa cells xenograft) is reported as “smaller than those of vehicle treated mice”.

In the case of CC(C)=CCC/C(C)=C/C[C@@H]1C[C@]2(CC=C(C)C)C(=O)[C@@](CC=C(C)C)(C(=O)C(C(=O)c3ccc(O)c(O)c3)=C2O)[C@@]1(C)CCC=C(C)C [Oblongifolin C], the “wound healing (migrated distance of cells)” value (ECA109 cells [2]) is reported as “suppressed the wound healing in a concentration dependent manner”, the “cell migration through transwell” value (ECA109 cells [3]) is reported as “suppress ECA109 cells migration through transwell at concentration dependent manner” and the “cell invasion through matrigel” value (ECA109 cells [4]) is reported as “suppress ECA109 cells invasion through matrigel at a concentration dependent manner”. The GFP-LC3 puncta formation (HeLa-LC3-GFP cells) was “could regulate GFP-LC3 puncta formation at concentration dependent manner”, the GFP-LC3 puncta formation [5] was “could regulate GFP-LC3 puncta formation” and the GFP-LC3 puncta formation [6] was “could regulate GFP-LC3 puncta formation”. The GFP-LC3 puncta formation [7] was “could regulate GFP-LC3 puncta formation”, the GFP-LC3 puncta formation [8] was “could regulate GFP-LC3 puncta formation” and the GFP-LC3 puncta formation [9] was “could regulate GFP-LC3 puncta formation”. For the same molecule, the “amount of LC3-II protein (FIG. 10; autophagic flux)” value (HeLa cells [10]; OC 15 μM over a time period, FIG. 10) was “increase the amount of LC3-II protein in a time-dependent manner”, the “amount of LC3-II protein (time dependence)” value (HeLa cells [10]; OC 15 μM, 0, 4, 8, 12 and 24 hours, FIG. 9) was “increase the amount of LC3-II protein in a time-dependent manner” and the “amount of LC3-II protein (dose dependence)” value (HeLa cells [10]; OC 2, 5, 10 and 25 μM, 24 hours, FIG. 8) was “increase the amount of LC3-II protein in a dose-dependent manner”. For the same molecule, the “amount of LC3-II protein (time dependence)” value (MEF cells; MEF, OC 15 μM, 0, 4, 8, 12 and 24 hours, FIG. 9) was “increase the amount of LC3-II protein in a time-dependent manner”, the “amount of LC3-II protein (dose dependence)” value (MEF cells; MEF, OC 2, 5, 10 and 25 μM, 24 hours, FIG. 8) was “increase the amount of LC3-II protein in a dose-dependent manner” and the “amount of LC3-II protein (FIG. 10; autophagic flux)” value (MEF cells; MEFs, OC 15 μM over a time period, FIG. 10) was “increase the amount of LC3-II protein in a time-dependent manner”. For the same molecule, the “autophagosome-lysosome fusion (colocalization of GFP-LC3 and LysoTracker Red)” value (from here on “autophagosome-lysosome fusion”) [11] was “block autophagosome-lysosome fusion”, the “autophagosome-lysosome fusion” value (MEF) was “block autophagosome-lysosome fusion” and the “apoptosis of nutrient-deprived cancer cells” value (HeLa cells [12]) was “sensitizes nutrient-deprived cancer cells to apoptosis”. The “apoptosis of nutrient-deprived cancer cells” value (CNE cells) was “sensitizes nutrient-deprived cancer cells to apoptosis”, the “Caspase 3 cleavage” value (HeLa cells [13]) was “resulted in Caspase 3 and cleavage in concentration-dependent manner” and the “anticancer effect in cervical cancer xenograft” value (HeLa cells xenograft; 12 μg OC intratumoral once every two days for two weeks, FIG. 15) was “anticancer effect similar to etopside”. For the same molecule, the “tumor size versus vehicle treated mice” value (HeLa cells xenograft) was “smaller than those of vehicle treated mice”, the “effective dosage for mouse” value (HeLa cells xenograft; based on 12 μg given to 20 g mouse) was 0.6 mg/kg and the “tumor markers in cervical cancer xenograft mouse model (Caspase 3, LC3, SQSTM1, lysosomal cathepsins)” value (HeLa cells xenograft; cervical cancer xenograft mouse model) was “increased Casepse 3 cleavage, LC3 and SQSTM1 accumulation, and reduced expression of lysosomal cathepsins”. For the same molecule, the “autophagic flux and lysosomal proteolytic activity” value [14] was “blocks both autophagic flux and lysosomal proteolytic activity” and the “relative potency among PPAP compounds” value [15] was “most potent PPAP compound”.

For CCN(CCO)CCCC(C)Nc1ccnc2cc(Cl)ccc12 (centres unmarked) [HCQ, hydroxychloroquine sulfate, reference compound], the “autophagosome-lysosome fusion” value [11] was “block autophagosome-lysosome fusion”.
